Assay results: ChEMBL document CHEMBL3045910, “Novel molluscicide against Pomacea canaliculata based on quinoa (Chenopodium quinoa) saponins” (Crop Prot, 2008)
Activity calls are given as the source filed them. The calls are words filed in the database; no cut-off is given here.

Legend:
[1] = Toxicity against Oreochromis sp. under laboratory conditions assessed as mortality at 54 ppm measured after 24 hr; format: organism-based; details: in vivo
[2] = Toxicity against Oreochromis sp. under laboratory conditions assessed as mortality at 40 ppm measured after 24 hr; format: organism-based; details: in vivo
Pomacea canaliculata [3] = assay: Molluscicidal activity against Pomacea canaliculata under laboratory conditions assessed as mortality at 33 ppm after 24 hr; format: functional
Pomacea canaliculata [4] = assay: Molluscicidal activity against Pomacea canaliculata under laboratory conditions assessed as mortality at 40 ppm after 24 hr; format: functional
Pomacea canaliculata [5] = assay: Molluscicidal activity against Pomacea canaliculata under laboratory conditions assessed as mortality at 23 ppm after 24 hr; format: functional
Pomacea canaliculata [6] = assay: Molluscicidal activity against Pomacea canaliculata under laboratory conditions assessed as mortality at 17 ppm after 24 hr; format: functional
[7] = Toxicity against Oreochromis sp. under laboratory conditions assessed as mortality at 33 ppm measured after 24 hr; format: organism-based; details: in vivo
[8] = Toxicity against Oreochromis sp. under laboratory conditions assessed as mortality at 23 ppm measured after 24 hr; format: organism-based; details: in vivo
[9] = Toxicity against Oreochromis sp. under laboratory conditions assessed as mortality at 10 ppm measured after 24 hr; format: organism-based; details: in vivo
[10] = Toxicity against Oreochromis sp. under laboratory conditions assessed as mortality at 17 ppm measured after 24 hr; format: organism-based; details: in vivo
[11] = Toxicity against Oreochromis sp. under laboratory conditions assessed as mortality at 5 ppm measured after 24 hr; format: organism-based; details: in vivo
[12] = Toxicity against Carassius auratus under laboratory conditions assessed as mortality at 54 ppm measured after 96 hr; format: organism-based; details: in vivo
[13] = Toxicity against Carassius auratus under laboratory conditions assessed as mortality at 33 ppm measured after 96 hr; format: organism-based; details: in vivo
[14] = Toxicity against Carassius auratus under laboratory conditions assessed as mortality at 40 ppm measured after 96 hr; format: organism-based; details: in vivo
[15] = Toxicity against Carassius auratus under laboratory conditions assessed as mortality at 23 ppm measured after 96 hr; format: organism-based; details: in vivo
[16] = Toxicity against Carassius auratus under laboratory conditions assessed as mortality at 17 ppm measured after 96 hr; format: organism-based; details: in vivo
[17] = Toxicity against Carassius auratus under laboratory conditions assessed as mortality at 10 ppm measured after 96 hr; format: organism-based; details: in vivo
[18] = Toxicity against Carassius auratus under laboratory conditions assessed as mortality at 54 ppm measured after 48 hr; format: organism-based; details: in vivo
[19] = Toxicity against Carassius auratus under laboratory conditions assessed as mortality at 5 ppm measured after 96 hr; format: organism-based; details: in vivo
[20] = Toxicity against Carassius auratus under laboratory conditions assessed as mortality at 40 ppm measured after 48 hr; format: organism-based; details: in vivo
[21] = Toxicity against Carassius auratus under laboratory conditions assessed as mortality at 33 ppm measured after 48 hr; format: organism-based; details: in vivo
[22] = Toxicity against Carassius auratus under laboratory conditions assessed as mortality at 23 ppm measured after 48 hr; format: organism-based; details: in vivo
[23] = Toxicity against Carassius auratus under laboratory conditions assessed as mortality at 17 ppm measured after 48 hr; format: organism-based; details: in vivo
[24] = Toxicity against Carassius auratus under laboratory conditions assessed as mortality at 5 ppm measured after 48 hr; format: organism-based; details: in vivo
[25] = Toxicity against Carassius auratus under laboratory conditions assessed as mortality at 10 ppm measured after 48 hr; format: organism-based; details: in vivo
[26] = Toxicity against Carassius auratus under laboratory conditions assessed as mortality at 54 ppm measured after 24 hr; format: organism-based; details: in vivo
[27] = Toxicity against Carassius auratus under laboratory conditions assessed as mortality at 40 ppm measured after 24 hr; format: organism-based; details: in vivo
[28] = Toxicity against Carassius auratus under laboratory conditions assessed as mortality at 33 ppm measured after 24 hr; format: organism-based; details: in vivo
[29] = Toxicity against Carassius auratus under laboratory conditions assessed as mortality at 17 ppm measured after 24 hr; format: organism-based; details: in vivo
[30] = Toxicity against Carassius auratus under laboratory conditions assessed as mortality at 23 ppm measured after 24 hr; format: organism-based; details: in vivo
[31] = Toxicity against Carassius auratus under laboratory conditions assessed as mortality at 10 ppm measured after 24 hr; format: organism-based; details: in vivo
[32] = Toxicity against Carassius auratus under laboratory conditions assessed as mortality at 5 ppm measured after 24 hr; format: organism-based; details: in vivo
Pomacea canaliculata [33] = assay: Molluscicidal activity against Pomacea canaliculata under laboratory conditions assessed as mortality at 54 ppm after 24 hr; format: functional
Pomacea canaliculata [34] = assay: Molluscicidal activity against Pomacea canaliculata under laboratory conditions assessed as mortality at 10 ppm after 24 hr; format: functional
Pomacea canaliculata [35] = assay: Molluscicidal activity against Pomacea canaliculata under laboratory conditions assessed as mortality at 5 ppm after 24 hr; format: functional
Pomacea canaliculata [36] = assay: Molluscicidal activity against Pomacea canaliculata infested rice field assessed as mortality at 19 to 27 ppm after 24 hr; format: functional, organism-based
[37] = Toxicity against Oreochromis sp. under laboratory conditions assessed as mortality at 54 ppm measured after 96 hr; format: organism-based; details: in vivo
[38] = Toxicity against Oreochromis sp. under laboratory conditions assessed as mortality at 40 ppm measured after 96 hr; format: organism-based; details: in vivo
[39] = Toxicity against Oreochromis sp. under laboratory conditions assessed as mortality at 33 ppm measured after 96 hr; format: organism-based; details: in vivo
[40] = Toxicity against Oreochromis sp. under laboratory conditions assessed as mortality at 23 ppm measured after 96 hr; format: organism-based; details: in vivo
[41] = Toxicity against Oreochromis sp. under laboratory conditions assessed as mortality at 10 ppm measured after 96 hr; format: organism-based; details: in vivo
[42] = Toxicity against Oreochromis sp. under laboratory conditions assessed as mortality at 17 ppm measured after 96 hr; format: organism-based; details: in vivo
[43] = Toxicity against Oreochromis sp. under laboratory conditions assessed as mortality at 5 ppm measured after 96 hr; format: organism-based; details: in vivo

## CC1(C)CC[C@]2(C(=O)O)CC[C@]3(C)C(=CC[C@@H]4[C@@]5(C)CC[C@H](O)[C@@](C)(CO)[C@@H]5CC[C@]43C)[C@@H]2C1 [HEDERAGENIN]
[1]
  mortality at 24 h, 54 ppm: 0%
[2]
  mortality at 24 h, 40 ppm: 0%
Pomacea canaliculata [3]
  mortality at 33 ppm: 100%
Pomacea canaliculata [4]
  mortality at 40 ppm: 100%
Pomacea canaliculata [5]
  mortality at 23 ppm: 75%
Pomacea canaliculata [6]
  mortality at 17 ppm: 75%
[7]
  mortality at 24 h, 33 ppm: 0%
[8]
  mortality at 24 h, 23 ppm: 0%
[9]
  mortality at 24 h, 10 ppm: 0%
[10]
  mortality at 24 h, 17 ppm: 0%
[11]
  mortality at 24 h, 5 ppm: 0%
[12]
  mortality at 96 h, 54 ppm: 0%
[13]
  mortality at 96 h, 33 ppm: 0%
[14]
  mortality at 96 h, 40 ppm: 0%
[15]
  mortality at 96 h, 23 ppm: 0%
[16]
  mortality at 96 h, 17 ppm: 0%
[17]
  mortality at 96 h, 10 ppm: 0%
[18]
  mortality at 48 h, 54 ppm: 0%
[19]
  mortality at 96 h, 5 ppm: 0%
[20]
  mortality at 48 h, 40 ppm: 0%
[21]
  mortality at 48 h, 33 ppm: 0%
[22]
  mortality at 48 h, 23 ppm: 0%
[23]
  mortality at 48 h, 17 ppm: 0%
[24]
  mortality at 48 h, 5 ppm: 0%
[25]
  mortality at 48 h, 10 ppm: 0%
[26]
  mortality at 24 h, 54 ppm: 0%
[27]
  mortality at 24 h, 40 ppm: 0%
[28]
  mortality at 24 h, 33 ppm: 0%
[29]
  mortality at 24 h, 17 ppm: 0%
[30]
  mortality at 24 h, 23 ppm: 0%
[31]
  mortality at 24 h, 10 ppm: 0%
[32]
  mortality at 24 h, 5 ppm: 0%
Pomacea canaliculata [33]
  mortality at 54 ppm: 100%
Pomacea canaliculata [34]
  mortality at 10 ppm: 50%
Pomacea canaliculata [35]
  mortality at 5 ppm: 0%
Pomacea canaliculata [36]
  mortality: Active
[37]
  mortality at 96 h, 54 ppm: 0%
[38]
  mortality at 96 h, 40 ppm: 0%
[39]
  mortality at 96 h, 33 ppm: 0%
[40]
  mortality at 96 h, 23 ppm: 0%
[41]
  mortality at 96 h, 10 ppm: 0%
[42]
  mortality at 96 h, 17 ppm: 0%
[43]
  mortality at 96 h, 5 ppm: 0%

## CC1(C)CC[C@]2(C(=O)O)CC[C@]3(C)C(=CC[C@@H]4[C@@]5(C)CC[C@H](O)C(C)(C)[C@@H]5CC[C@]43C)[C@@H]2C1 [OLEANOLIC_ACID]
[1]
  mortality at 24 h, 54 ppm: 0%
[2]
  mortality at 24 h, 40 ppm: 0%
Pomacea canaliculata [3]
  mortality at 33 ppm: 100%
Pomacea canaliculata [4]
  mortality at 40 ppm: 100%
Pomacea canaliculata [5]
  mortality at 23 ppm: 75%
Pomacea canaliculata [6]
  mortality at 17 ppm: 75%
[7]
  mortality at 24 h, 33 ppm: 0%
[8]
  mortality at 24 h, 23 ppm: 0%
[9]
  mortality at 24 h, 10 ppm: 0%
[10]
  mortality at 24 h, 17 ppm: 0%
[11]
  mortality at 24 h, 5 ppm: 0%
[12]
  mortality at 96 h, 54 ppm: 0%
[13]
  mortality at 96 h, 33 ppm: 0%
[14]
  mortality at 96 h, 40 ppm: 0%
[15]
  mortality at 96 h, 23 ppm: 0%
[16]
  mortality at 96 h, 17 ppm: 0%
[17]
  mortality at 96 h, 10 ppm: 0%
[18]
  mortality at 48 h, 54 ppm: 0%
[19]
  mortality at 96 h, 5 ppm: 0%
[20]
  mortality at 48 h, 40 ppm: 0%
[21]
  mortality at 48 h, 33 ppm: 0%
[22]
  mortality at 48 h, 23 ppm: 0%
[23]
  mortality at 48 h, 17 ppm: 0%
[24]
  mortality at 48 h, 5 ppm: 0%
[25]
  mortality at 48 h, 10 ppm: 0%
[26]
  mortality at 24 h, 54 ppm: 0%
[27]
  mortality at 24 h, 40 ppm: 0%
[28]
  mortality at 24 h, 33 ppm: 0%
[29]
  mortality at 24 h, 17 ppm: 0%
[30]
  mortality at 24 h, 23 ppm: 0%
[31]
  mortality at 24 h, 10 ppm: 0%
[32]
  mortality at 24 h, 5 ppm: 0%
Pomacea canaliculata [33]
  mortality at 54 ppm: 100%
Pomacea canaliculata [34]
  mortality at 10 ppm: 50%
Pomacea canaliculata [35]
  mortality at 5 ppm: 0%
Pomacea canaliculata [36]
  mortality: Active
[37]
  mortality at 96 h, 54 ppm: 0%
[38]
  mortality at 96 h, 40 ppm: 0%
[39]
  mortality at 96 h, 33 ppm: 0%
[40]
  mortality at 96 h, 23 ppm: 0%
[41]
  mortality at 96 h, 10 ppm: 0%
[42]
  mortality at 96 h, 17 ppm: 0%
[43]
  mortality at 96 h, 5 ppm: 0%
